Source: US8999982B2, “Pharmaceutically active compounds as Axl inhibitors” (Lead Discovery Center GmbH, priority 2010, dated 2015)

Experiments:
Axl [1] = biological target: T1, Axl (Homo sapiens (Human), UniProt P30530); assay: Cellular Axl phosphorylation assay; format: cell-based; details: HEK293 cells transfected with Axl cDNA, 1 hour incubation
In short: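 Transiently Axl-transfected HEK293 cells, with a vector-only negative control, were treated with compound for 1 hour on the day after medium change. Axl phosphorylation was quantified by mesoscale detection.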

Axl [2] = biological target: T1, Axl; assay: Axl binding assay
Protocol: Binding of the tracer to the kinase is detected using an EU-labeled anti-tag antibody. […] Binding of an inhibitor to the kinase competes for binding with the tracer, resulting in a loss of FRET-signal. At first a compound according to formula (I) was diluted in 20 mM Hepes pH 8.0, 1 mM DTT, 10 mM MgCl2 and 0.01% Brij35.

T1 sequence (P30530 26-894): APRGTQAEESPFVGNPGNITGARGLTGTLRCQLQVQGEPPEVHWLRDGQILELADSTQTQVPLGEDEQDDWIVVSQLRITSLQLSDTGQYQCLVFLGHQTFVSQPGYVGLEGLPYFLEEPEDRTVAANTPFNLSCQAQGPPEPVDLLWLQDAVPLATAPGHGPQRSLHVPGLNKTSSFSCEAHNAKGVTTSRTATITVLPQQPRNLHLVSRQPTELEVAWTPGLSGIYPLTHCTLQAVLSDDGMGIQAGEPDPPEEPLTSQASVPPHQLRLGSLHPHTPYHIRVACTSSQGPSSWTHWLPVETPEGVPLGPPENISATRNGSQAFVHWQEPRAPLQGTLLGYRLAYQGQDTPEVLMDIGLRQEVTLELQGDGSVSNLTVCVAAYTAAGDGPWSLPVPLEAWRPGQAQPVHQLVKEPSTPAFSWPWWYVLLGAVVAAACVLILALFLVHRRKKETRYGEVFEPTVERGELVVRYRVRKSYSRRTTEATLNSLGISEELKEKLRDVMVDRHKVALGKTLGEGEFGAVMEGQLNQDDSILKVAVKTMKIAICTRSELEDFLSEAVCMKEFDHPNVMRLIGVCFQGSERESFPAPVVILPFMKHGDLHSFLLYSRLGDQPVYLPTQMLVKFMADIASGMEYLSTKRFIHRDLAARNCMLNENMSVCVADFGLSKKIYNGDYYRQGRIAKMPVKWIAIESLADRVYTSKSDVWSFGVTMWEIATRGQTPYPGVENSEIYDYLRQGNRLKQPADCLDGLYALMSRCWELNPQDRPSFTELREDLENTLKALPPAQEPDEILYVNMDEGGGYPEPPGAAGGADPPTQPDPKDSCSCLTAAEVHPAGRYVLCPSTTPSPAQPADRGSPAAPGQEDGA

| SMILES | IC50 (Axl [1]) [nM] | IC50 (Axl [2]) [nM] |
| --- | --- | --- |
| COc1cc2c(Oc3ccc(NC(=O)c4nn(-c5ccc(F)cc5)cc4OCC4CCN(C)C4)cc3F)ccnc2cc1OCCCN1CCNCC1 (stereo not shown) [Example 71, N-[3-fluoro-4-[[6-methoxy-7-(3-piperazin-1-ylpropoxy)-4-quinolyl]oxy]phenyl]-1-(4-fluorophenyl)-4-[(1-methylpyrrolidin-3-yl)methoxy]pyrazole-3-carboxamide] | 500 to 5000 | < 500 |
| COc1cc2c(Oc3ccc(NC(=O)c4csc(-c5ccccc5)n4)cc3F)ccnc2cc1OCCCN1CCNCC1 [Example 72, N-[3-fluoro-4-[[6-methoxy-7-(3-piperazin-1-ylpropoxy)-4-quinolyl]oxy]phenyl]-2-phenyl-thiazole-4-carboxamide] | < 500 | < 500 |
| COc1cc2c(Oc3ccc(NC(=O)c4nn(-c5ccc(F)cc5)cc4OC)cc3F)ccnc2cc1OCC1CCNCC1 [Example 73, N-[3-fluoro-4-[[6-methoxy-7-(4-piperidylmethoxy)-4-quinolyl]oxy]phenyl]-1-(4-fluorophenyl)-4-methoxy-pyrazole-3-carboxamide] | < 500 | < 500 |
| CCOc1cn(-c2ccc(F)cc2C)nc1C(=O)Nc1ccc(Oc2ccnc3cc(OCC4CCNCC4)c(OC)cc23)c(F)c1 [Example 74, 4-ethoxy-N-[3-fluoro-4-[[6-methoxy-7-(4-piperidylmethoxy)-4-quinolyl]oxy]phenyl]-1-(4-fluoro-2-methyl-phenyl)pyrazole-3-carboxamide] | < 500 | < 500 |
| COc1cc2c(Oc3ccc(NC(=O)c4nn(-c5ccc(F)cc5)cc4OCC4CC4)cc3F)ccnc2cc1OCC1CCNCC1 [Example 75, 4-(cyclopropylmethoxy)-N-[3-fluoro-4-[[6-methoxy-7-(4-piperidylmethoxy)-4-quinolyl]oxy]phenyl]-1-(4-fluorophenyl)pyrazole-3-carboxamide] | < 500 | < 500 |
| COc1cc2c(Oc3ccc(NC(=O)c4nn(-c5ccc(F)cc5)cc4Br)cc3F)ccnc2cc1OCC1CCNCC1 [Example 76, 4-bromo-N-[3-fluoro-4-[[6-methoxy-7-(4-piperidylmethoxy)-4-quinolyl]oxy]phenyl]-1-(4-fluorophenyl)pyrazole-3-carboxamide] | < 500 | < 500 |
| COc1cc2c(Oc3ccc(NC(=O)c4nn(-c5ccc(F)cc5)cc4OCc4ccc(F)cc4)cc3F)ccnc2cc1OCC1CCNCC1 [Example 77, N-[3-fluoro-4-[[6-methoxy-7-(4-piperidylmethoxy)-4-quinolyl]oxy]phenyl]-1-(4-fluorophenyl)-4-[(4-fluorophenyl)methoxy]pyrazole-3-carboxamide] | < 500 | < 500 |
| COc1cc2c(Oc3ccc(NC(=O)c4cc(C)n(C(C)(C)C)n4)cc3F)ccnc2cc1OCC1CCNCC1 [Example 78, 1-tert-butyl-N-[3-fluoro-4-[[6-methoxy-7-(4-piperidylmethoxy)-4-quinolyl]oxy]phenyl]-5-methyl-pyrazole-3-carboxamide] | < 500 | < 500 |
| COc1cc2c(Oc3ccc(NC(=O)c4nc(-c5ccccc5)oc4C)cc3F)ccnc2cc1OCC1CCNCC1 [Example 80, N-[3-fluoro-4-[[6-methoxy-7-(4-piperidylmethoxy)-4-quinolyl]oxy]phenyl]-5-methyl-2-phenyl-oxazole-4-carboxamide] | < 500 | < 500 |
| COc1cc2c(Oc3ccc(NC(=O)c4csc(-c5ccccc5)n4)cc3F)ccnc2cc1OCC1CCNCC1 [Example 81, N-[3-fluoro-4-[[6-methoxy-7-(4-piperidylmethoxy)-4-quinolyl]oxy]phenyl]-2-phenyl-thiazole-4-carboxamide] | 500 to 5000 | < 500 |
| CCOc1cn(-c2ccc(F)cc2C)nc1C(=O)Nc1ccc(Oc2ccnc3cc(OCC4CCN(CC)CC4)c(OC)cc23)c(F)c1 [Example 82, 4-ethoxy-N-[4-[[7-[(1-ethyl-4-piperidyl)methoxy]-6-methoxy-4-quinolyl]oxy]-3-fluoro-phenyl]-1-(4-fluoro-2-methyl-phenyl)pyrazole-3-carboxamide] | < 500 | < 500 |
| CCOc1cn(-c2ccc(F)cc2C)nc1C(=O)Nc1ccc(Oc2ccnc3cc(OCC4CCN(CC(C)C)CC4)c(OC)cc23)c(F)c1 [Example 83, 4-ethoxy-N-[3-fluoro-4-[[7-[(1-isobutyl-4-piperidyl)methoxy]-6-methoxy-4-quinolyl]oxy]phenyl]-1-(4-fluoro-2-methyl-phenyl)pyrazole-3-carboxamide] | < 500 | < 500 |
| CCOc1cn(-c2ccc(F)cc2)nc1C(=O)Nc1ccc(Oc2ccnc3cc(OC)c(OC)cc23)cn1 [Example 84, N-[5-[(6,7-dimethoxy-4-quinolyl)oxy]-2-pyridyl]-4-ethoxy-1-(4-fluorophenyl)pyrazole-3-carboxamide] | < 500 | < 500 |
| CCOc1cn(-c2ccc(F)cc2C)nc1C(=O)Nc1ccc(Oc2ccnc3cc(OC)c(OC)cc23)cn1 [Example 85, N-[5-[(6,7-dimethoxy-4-quinolyl)oxy]-2-pyridyl]-4-ethoxy-1-(4-fluoro-2-methyl-phenyl)pyrazole-3-carboxamide] | < 500 | < 500 |
| CCOc1cn(-c2ccc(F)cc2Cl)nc1C(=O)Nc1ccc(Oc2ccnc3cc(OC)c(OC)cc23)cn1 [Example 86, 1-(2-chloro-4-fluoro-phenyl)-N-[5-[(6,7-dimethoxy-4-quinolyl)oxy]-2-pyridyl]-4-ethoxy-pyrazole-3-carboxamide] | < 500 | < 500 |
| COc1cc2nccc(Oc3ccc(NC(=O)c4nn(-c5ccc(F)cc5)cc4CCN(C)C)nc3)c2cc1OC [Example 87, N-[5-[(6,7-dimethoxy-4-quinolyl)oxy]-2-pyridyl]-4-(2-dimethylaminoethyl)-1-(4-fluorophenyl)pyrazole-3-carboxamide] | < 500 | 500 to 5000 |
| CCOc1cn(-c2ccc(OC)cc2C)nc1C(=O)Nc1ccc(Oc2ccnc3cc(OC)c(OC)cc23)cn1 [Example 89, N-(5-((6,7-dimethoxyquinolin-4-yl)oxy)pyridin-2-yl)-4-ethoxy-1-(4-methoxy-2-methylphenyl)-1H-pyrazole-3-carboxamide] | < 500 | < 500 |
| CCOc1cn(-c2cccc([N+](=O)[O-])c2)nc1C(=O)Nc1ccc(Oc2ccnc3cc(OC)c(OC)cc23)c(F)c1 [Example 90, N-(4-((6,7-dimethoxyquinolin-4-yl)oxy)-3-fluorophenyl)-4-ethoxy-1-(3-nitrophenyl)-1H-pyrazole-3-carboxamide] | < 500 | < 500 |
| CCOc1cn(-c2ccc(OC)cc2C)nc1C(=O)Nc1ccc(Oc2ccnc3cc(OC)c(OC)cc23)c(F)c1 [Example 91, N-(4-((6,7-dimethoxyquinolin-4-yl)oxy)-3-fluorophenyl)-4-ethoxy-1-(4-methoxy-2-methylphenyl)-1H-pyrazole-3-carboxamide] | < 500 | < 500 |
| CCOc1cn(-c2cccc([N+](=O)[O-])c2)nc1C(=O)Nc1ccc(Oc2ccnc3cc(OC)c(OC)cc23)cn1 [Example 92, N-(5-((6,7-dimethoxyquinolin-4-yl)oxy)pyridin-2-yl)-4-ethoxy-1-(3-nitrophenyl)-1H-pyrazole-3-carboxamide] | < 500 | < 500 |
